Source: ChEMBL document CHEMBL5380773, “Novel Feleucin-K3-Derived Peptides Modified with Sulfono-γ-AA Building Blocks Targeting Pseudomonas aeruginosa and Methicillin-Resistant Staphylococcus aureus Infections” (J Med Chem, 2023)
The source made the active and inactive calls. Numbered stars: 1 amine (or outer) side, 2 acyl side, 3 side chain; on linkers, the order of the positions; unused ones are H or OH. Square brackets hold non-standard residues; d marks the D form. Peptide text beside a SMILES is read from it. * marks the point of attachment. X2 = CC(C)C[C@H](N)CN(CC(=O)[*:2])[*:1]; X1 = O=S(=O)(c1ccc(I)cc1)*

Assays:
Staphylococcus aureus [1] = test: Antimicrobial activity against methicillin resistant Staphylococcus aureus ATCC 33591 incubated for 18 hrs by microdilution method; format: functional
Staphylococcus aureus [2] = test: Induction of resistant development in Staphylococcus aureus ATCC 25923 assessed as fold increase by serial passage assay; format: functional
Staphylococcus aureus [3] = test: Antimicrobial activity against methicillin resistant Staphylococcus aureus ATCC 33591 infected in skin wound mouse model assessed as reduction in skin damage at 0.25 mg/kg measured upto 10 days by H and E staining based assay; format: functional, organism-based; details: time <= 10.0 day
Cell membrane [4] = test: Induction of membrane disruption in Pseudomonas aeruginosa ATCC 27853 assessed as membrane shrinkage at low concentration incubated for 24 hrs by SEM analysis; format: subcellular
[5] = tested on: Staphylococcus epidermidis; test: Antibiofilm activity against Staphylococcus epidermidis ATCC 12228 assessed as reduction in biofilm thickness; format: functional, organism-based
Staphylococcus aureus [6] = test: Antibiofilm activity against methicillin resistant Staphylococcus aureus ATCC 33591 assessed as reduction in biofilm structures at MBIC90 by scanning electron microscopic analysis; format: functional, organism-based
Cell membrane [7] = test: Induction of membrane disruption in methicillin resistant Staphylococcus aureus ATCC 33591 assessed as cytoplasmic leakage at 2 to 4 times MIC incubated for 2 to 4 hrs by TEM analysis; format: subcellular; details: time 2-4 hrs
Pseudomonas aeruginosa [8] = test: Antibiofilm activity against Pseudomonas aeruginosa ATCC 27853 at MBIC50; format: functional, organism-based
Cell membrane [9] = test: Induction of membrane disruption in methicillin resistant Staphylococcus aureus ATCC 33591 assessed as membrane blebbing at low concentration incubated for 24 hrs by SEM analysis; format: subcellular
Staphylococcus aureus [10] = test: Antimicrobial activity against methicillin resistant Staphylococcus aureus ATCC 33591 infected in skin wound mouse model assessed as reduction in number of inflammatory cells at 1 to 4 mg/kg measured on day 3 and 7 by H and E staining based assay; format: functional, organism-based; details: dose 1-4 mg/kg, time 3-7 day
Cell membrane [11] = test: Induction of membrane disruption in Pseudomonas aeruginosa ATCC 27853 assessed as irregular atrophy at low concentration incubated for 24 hrs by SEM analysis; format: subcellular
Cell membrane [12] = test: Induction of membrane disruption in Pseudomonas aeruginosa ATCC 27853 assessed as membrane collapse at 2 to 4 times MIC incubated for 24 hrs by TEM analysis; format: subcellular
Erythrocyte = test: Hemolytic activity against mouse red blood cells incubated for 1 hr; format: toxicity, cell-based
Pseudomonas aeruginosa [13] = test: Bactericidal activity against Pseudomonas aeruginosa ATCC 27853 at 4 times MIC after 1 hr; format: functional, organism-based
Staphylococcus aureus [14] = test: Antimicrobial activity against methicillin resistant Staphylococcus aureus ATCC 33591 infected in BALB/c mouse assessed as biofilm eradication at 0.25 to 1 mg/kg infected with bacteria for 2 hrs prior to compound addition on 1, 24 and 48 hrs and measured after 72 hrs by H and E staining based assay; format: functional, organism-based; details: dose 0.25-1 mg/kg
Cell membrane [15] = test: Induction of membrane disruption in methicillin resistant Staphylococcus aureus ATCC 33591 assessed as separation of cytoplasmic membrane at 2 to 4 times MIC incubated for 2 to 4 hrs by TEM analysis; format: subcellular; details: time 2-4 hrs
Pseudomonas aeruginosa [16] = test: Induction of ROS generation in Pseudomonas aeruginosa ATCC 27853 by DCFH-DA dye based fluorescence assay; format: functional, organism-based; details: TDE = time-dependent effect
Pseudomonas aeruginosa [17] = test: Antimicrobial activity against Pseudomonas aeruginosa in presence of LPS/LTA; format: functional
Staphylococcus aureus [18] = test: Antimicrobial activity against methicillin resistant Staphylococcus aureus ATCC 33591 infected in skin wound mouse model assessed as reduction in skin wound bacterial load at 0.25 to 4 mg/kg measured on day 3 and 7 […]; format: functional, organism-based; details: dose 0.25-4 mg/kg, time 3-7 day
Cell membrane [19] = test: Induction of membrane disruption in methicillin resistant Staphylococcus aureus ATCC 33591 assessed as separation […] at 2 to 4 times MIC incubated for 2 to 4 hrs by TEM analysis; format: subcellular; details: time 2-4 hrs
Pseudomonas aeruginosa [20] = test: Bactericidal activity against Pseudomonas aeruginosa ATCC 27853 at 4 times MIC after 5 mins by time kill assay; format: functional, organism-based
Staphylococcus aureus [21] = test: Antimicrobial activity against methicillin resistant Staphylococcus aureus ATCC 33591 infected in BALB/c mouse assessed as reduction in sessile bacteria attached on catheters surface at 0.25 to 1 mg/kg infected with bacteria for 2 hrs prior to compound addition on 1, 24 and 48 hrs and measured after 72 hrs […]; format: functional, organism-based; details: dose 0.25-1 mg/kg
Cell membrane [22] = test: Induction of cytoplasmic membrane depolarization in methicillin resistant Staphylococcus aureus ATCC 33591 by DiSC35 dye based fluorescence method
Cell membrane [23] = test: Induction of membrane disruption in Pseudomonas aeruginosa ATCC 27853 assessed as separation of outer membrane at 2 to 4 times MIC incubated for 24 hrs by TEM analysis; format: subcellular
Staphylococcus aureus [24] = test: Antimicrobial activity against methicillin resistant Staphylococcus aureus ATCC 33591 infected in BALB/c mouse assessed as reduction in tissue damage at 0.25 to 1 mg/kg infected with bacteria for 2 hrs prior to compound addition on 1, 24 and 48 hrs and measured after 72 hrs by H and E staining based assay; format: functional, organism-based; details: dose 0.25-1 mg/kg
Staphylococcus aureus [25] = test: Induction of resistant development in methicillin resistant Staphylococcus aureus ATCC 33591 assessed as fold increase by serial passage assay; format: functional
Pseudomonas aeruginosa [26] = test: Antibiofilm activity against Pseudomonas aeruginosa ATCC 27853 assessed as reduction in biofilm thickness at 1 times MBIC50 incubated for 24 hrs by confocal laser scanning microscopy analysis (reference value: 90 micrometer); format: functional
[27] = tested on: Staphylococcus epidermidis; test: Antibiofilm activity against Staphylococcus epidermidis ATCC 12228 at 2 to 4 ug/ml incubated for 24 hrs by crystal violet staining based microplate reader analysis; format: functional; details: dose 2-4 µg/ml, at 2 to 4 µg/mL
DNA [28] = test: Binding affinity to Staphylococcus aureus DNA at 8 times MIC incubated for 30 mins; format: nucleic-acid assay
Staphylococcus aureus [29] = test: Bactericidal activity against Staphylococcus aureus ATCC 25923 at 4 times MIC after 1 hr by time kill assay; format: functional, organism-based
Staphylococcus aureus [30] = test: Antibiofilm activity against Staphylococcus aureus ATCC 25923 at 4 to 8 ug/ml incubated for 24 hrs by crystal violet staining based microplate reader analysis; format: functional, organism-based; details: dose 4-8 µg/ml
[31] = tested on: Staphylococcus epidermidis; test: Bactericidal activity against Staphylococcus epidermidis ATCC 12228 at 4 times MIC after 0.5 hrs; format: functional, organism-based
Staphylococcus aureus [32] = test: Bactericidal activity against methicillin resistant Staphylococcus aureus ATCC 33591 at 4 times MIC after 2 to 4 hrs; format: functional, organism-based; details: time 2-4 hrs
Pseudomonas aeruginosa [33] = test: Bactericidal activity against Pseudomonas aeruginosa ATCC 27853 at 4 times MIC after 2 to 6 hrs by time kill assay; format: functional, organism-based; details: time 2-6 hrs
Pseudomonas aeruginosa [34] = test: Antimicrobial activity against Pseudomonas aeruginosa ATCC 27853 infected in C57BL/6J mouse assessed as reduction in IL-1beta at 2.5 mg/kg, ip measured after 72 hrs […]; format: functional, organism-based
DNA [35] = test: Binding affinity to Staphylococcus epidermidis DNA at 8 times MIC incubated for 30 mins; format: nucleic-acid assay
Staphylococcus aureus [36] = test: Antimicrobial activity against methicillin resistant Staphylococcus aureus ATCC 33591 infected in skin wound mouse model assessed as reduction in ulcer at 1 to 4 mg/kg measured on day 3 and 7 by H and E staining based assay; format: functional, organism-based; details: dose 1-4 mg/kg, time 3-7 day

CC(C)C[C@H](N)CN(CC(=O)N[C@@H](CCCCN)C(=O)N[C@@H](CC(C)C)C(=O)N[C@@H](CC(C)C)C(=O)N[C@@H](CCCCN)C(=O)N[C@@H](CCCCN)C(=O)N[C@@H](CC(C)C)C(=O)N[C@@H](CC(C)C)C(N)=O)S(=O)(=O)c1ccc(I)cc1 (X1-[X2]KLLKKLL-NH2)
≥ 64 µg/mL: MIC (Pseudomonas aeruginosa [17])
40 um: Activity (Pseudomonas aeruginosa [26])
2.8 µg/mL: MIC (Staphylococcus aureus [1])
active: Activity (Staphylococcus aureus [3]) | Activity (Cell membrane [4]) | Activity [5] | Activity (Staphylococcus aureus [6]) | Activity (Cell membrane [7]) | Activity (Pseudomonas aeruginosa [8]) | Activity (Cell membrane [9]) | Activity (Staphylococcus aureus [10]) | Activity (Cell membrane [11]) | Activity (Cell membrane [12]) | Activity (Pseudomonas aeruginosa [13]) | Activity (Staphylococcus aureus [14]) | Activity (Cell membrane [15]) | Activity (Pseudomonas aeruginosa [16]) Tde | Activity (Staphylococcus aureus [18]) | Activity (Cell membrane [19]) | Activity (Pseudomonas aeruginosa [20]) | Activity (Staphylococcus aureus [21]) | Activity (Cell membrane [22]) | Activity (Cell membrane [23]) | Activity (Staphylococcus aureus [24]) | Activity (DNA [28]) | Activity (Staphylococcus aureus [29]) | Activity (Staphylococcus aureus [30]) | Activity [31] | Activity (Staphylococcus aureus [32]) | Activity (Pseudomonas aeruginosa [33]) | Activity (Pseudomonas aeruginosa [34]) | Activity (DNA [35]) | Activity (Staphylococcus aureus [36])
256 µg/mL: MHC (Erythrocyte)
2: fold change (FC) (Staphylococcus aureus [2]) | fold change (FC) (Staphylococcus aureus [25])
50%: Activity [27]
